Reference: article PMC4500090 (Biochemical and biophysical research communications, 2015)
Where two headings read alike, the source gives them in different places.

Assays:
MEKK2 [1] = target: T1, MEKK2 (Homo sapiens, UniProt Q9Y2U5); experiment: MEKK2 intrinsic ATPase activity assay; type: biochemical
T1 sequence (Q9Y2U5 1-619): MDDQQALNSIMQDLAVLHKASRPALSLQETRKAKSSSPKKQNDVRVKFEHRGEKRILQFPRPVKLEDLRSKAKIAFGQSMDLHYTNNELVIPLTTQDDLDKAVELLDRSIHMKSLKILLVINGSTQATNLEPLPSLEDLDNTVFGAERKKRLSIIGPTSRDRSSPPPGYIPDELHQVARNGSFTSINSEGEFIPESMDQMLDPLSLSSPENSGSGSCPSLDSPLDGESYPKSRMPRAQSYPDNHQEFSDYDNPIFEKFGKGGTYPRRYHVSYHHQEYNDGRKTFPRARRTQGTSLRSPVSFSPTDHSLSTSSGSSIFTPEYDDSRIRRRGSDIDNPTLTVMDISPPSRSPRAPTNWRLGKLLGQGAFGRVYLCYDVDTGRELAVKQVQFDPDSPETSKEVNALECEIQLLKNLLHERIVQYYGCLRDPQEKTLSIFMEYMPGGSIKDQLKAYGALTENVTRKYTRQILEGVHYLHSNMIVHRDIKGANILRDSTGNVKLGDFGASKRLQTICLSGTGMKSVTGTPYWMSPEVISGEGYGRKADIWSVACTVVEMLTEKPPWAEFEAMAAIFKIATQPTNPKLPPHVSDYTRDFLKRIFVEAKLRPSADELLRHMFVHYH

10 other kinases = conditions: read-out: IC50 10 other kinases; cited from earlier work
Aurora A = conditions: read-out: IC50 Aurora A; cited from earlier work
Abl (T315I) mutant = conditions: read-out: IC50 Abl (T315I) mutant; cited from earlier work
Aurora B [2] = conditions: read-out: IC50 Aurora B; cited from earlier work
JAK3 = conditions: read-out: IC50 JAK3; cited from earlier work
MEKK2 [3] = target: T1, MEKK2; experiment: MEKK2 transphosphorylation slot blot assay using MKK6 as a substrate; type: biochemical
Aurora B [4] = conditions: read-out: IC50 Aurora B; cited from earlier work; remark: listed apart in the source
CDK3 = conditions: read-out: IC50 CDK3; cited from earlier work
CDK2 = conditions: read-out: IC50 CDK2; cited from earlier work
CDK1 = conditions: read-out: IC50 CDK1; cited from earlier work

IC50 (MEKK2 [1]) [nM] | IC50 (MEKK2 [3]) [nM] | SMILES | IC50 (10 other kinases) [nM] | IC50 (Aurora A) [nM] | IC50 (Abl (T315I) mutant) [nM] | IC50 (Aurora B [2]) [nM] | IC50 (JAK3) [nM] | IC50 (Aurora B [4]) [nM] | IC50 (CDK3) [nM] | IC50 (CDK2) [nM] | IC50 (CDK1) [nM]
[…] | 4.7 ± 0.9 | O=C(Nc1c[nH]nc1-c1nc2ccc(CN3CCOCC3)cc2[nH]1)NC1CC1 [AT9283] | […] | […] | 4 | […] | […] | – | – | – | –
20 ± 7 | 14 ± 2 | NC(=O)Nc1cc(-c2cccc(F)c2)sc1C(=O)N[C@H]1CCCNC1 [AZD7762] | – | – | – | – | – | – | – | – | –
60 ± 25 | 34 ± 11 | CCS(=O)(=O)Nc1ccc2c(c1)/C(=C(/Nc1ccc(CN3CCCCC3)cc1)c1ccccc1)C(=O)N2 [Hesperadin] | – | – | – | – | – | 250 | – | – | –
24 ± 8 | 17 ± 2 | Nc1nc(Nc2ccc(S(N)(=O)=O)cc2)nn1C(=O)c1c(F)cccc1F [JNJ-7706621] | – | – | – | – | – | – | […] | […] | […]
